Data set [1] deals with emulsion-induced hyperlipidemic rats. The experiment in a line: antihyperlipidemic activity in emulsion-induced hyperlipidemic rats. It counts as in vivo. The note with it: Rattus norvegicus, po, 72 h, 300 mg/kg daily via stomach tube, 3 days, male S.D. rats, lipids emulsion, versus control group; for change in vivo at 300 mg/kg: "-" = reduction rate, read-out: Increase rate of serum HDL-Chol.; for inhibition in vivo at 300 mg/kg: read-out: Reduction rate of serum Chol. On the procedure: The antihyperlipidemic activity in emulsion-induced hyperlipidemic rats: Male S. D. rats weighing 80-90 g (4 weeks old) were used. They were devided into groups of 5 to 6 rats each. The test compounds suspended in 0.5% CMC-Na(carboxymethyl cellulose sodium salt) were given to the rats in a daily dose of 4.0 ml/kg (i.e. 300 mg/kg of the test compounds) via stomach tube every 10:00 a.m. After 30 min., lipids emulsion having the following composition was orally given to the rats in an amount of 2.5 ml per rat. During the experimental period of 3 days, the rats were fed on a standard commercial diet and water ad libitum. […] The total cholesterol and HDL cholesterol were measured. The weight of the liver was measured. To the control group, only the aqueous CMC-Na solution and the lipids emulsion were given. The fractionation of lipoproteins was conducted by a dextran sulfate-MgCl2 precipitation method. Cholesterol in serum was measured by means of a cholesterol measuring kit (Cholesterol C-Test Wako, manufactured by Wako Junyaku Co., Ltd.), and cholesterol in HDL was measured by means of NC Hi-Set, manufactured by Nippon Chemiphar Co., Ltd. In the following description, cholesterol is referred to as "Chol". Further, the reduction rate of Chol was calculated by the following equation. [formula] where A is the amount of serum Chol (mg/dl) of the control group, and B is the amount of serum Chol (mg/dl) of the group to which the therapeutic agent was administered. Likewise, the increase rate of serum HDL-Chol was calculated by the following equation. [formula] where C is the amount of serum HDL-Chol (mg/dl) of the control group, and D is the amount of serum HDL-Chol (mg/dl) of the group to which the therapeutic agent was administered.

The nature of data set [2]: acute toxicity (mortality after seven days). The note with it: mouse, in vivo, po, 4000 mg/kg p.o., male ddY mice. On the procedure:
The test compounds suspended in 0.5% CMC-Na were administered p.o. to male ddY mice. The acute toxicity was determined based on the mortality after seven days. In respect of the Compound Nos. 1, 2, 3, 4, 6, 7, 10, 12 and 13 of the present invention, the mortality was 0% even at a dose of as high as 4000 mg/kg by oral administration.

For data set [3] the following is noted: literature, and its derivatives; cited from earlier work.
For data set [4] the following is noted: animal experiments, Svoboda and Azarnoff, Cancer Res. 39, 3419 (1979); cited from earlier work.

The structures appear in SMILES notation.

By mortality is commonly meant the percentage killed. Take `COc1ccccc1C1SC(=S)N(C)C(c2ccccc2OC)N1C` (stereo not shown) [Compound No. 3]: in data set [1], the change in vivo at 300 mg/kg turned out to be 33% and the inhibition in vivo at 300 mg/kg amounted to 32%. In addition, the mortality at 168 h in data set [2] stood at 0%.

On to `CN1C(=S)SC(c2ccc3c(c2)OCO3)N(C)C1c1ccc2c(c1)OCO2` (stereo not shown) [compound 13], for which, in data set [1], the change in vivo at 300 mg/kg is 54% and the inhibition in vivo at 300 mg/kg was found to be 52%. Further, in data set [2], the mortality at 168 h was determined as 0%.

Consider `Cc1cccc(C2SC(=S)N(C)C(c3cccc(C)c3)N2C)c1` (stereo not shown) [Compound No. 5], for which, in data set [1], the change in vivo at 300 mg/kg is 52% and the inhibition in vivo at 300 mg/kg was 44%.

On to `CCOc1ccccc1C1SC(=S)N(C)C(c2ccccc2OCC)N1C` (stereo not shown) [compound 7], for which, in data set [1], the change in vivo at 300 mg/kg amounted to 14% and the inhibition in vivo at 300 mg/kg was 37%. Besides, the mortality at 168 h in data set [2] worked out at 0%.

Take `CN1C(=S)SC(c2ccc(F)cc2)N(C)C1c1ccc(F)cc1` (stereo not shown) [compound 8]: in data set [1], the change in vivo at 300 mg/kg came to 37% and the inhibition in vivo at 300 mg/kg came out at 26%.

As for `COc1cc(C2SC(=S)N(C)C(c3cc(OC)c(OC)c(OC)c3)N2C)cc(OC)c1OC` (stereo not shown) [compound 14], in data set [1], the change in vivo at 300 mg/kg is 6% and the inhibition in vivo at 300 mg/kg amounted to 19%.

`Cc1ccccc1C1SC(=S)N(C)C(c2ccccc2C)N1C` (stereo not shown) [compound 6]: in data set [1], the change in vivo at 300 mg/kg came to 61% and the inhibition in vivo at 300 mg/kg turned out to be 40%. The molecule also displayed a mortality at 168 h in data set [2] of 0%.

On to `COc1cccc(C2SC(=S)N(C)C(c3cccc(OC)c3OC)N2C)c1OC` (stereo not shown) [compound 16], for which, in data set [1], the change in vivo at 300 mg/kg came to 44% and the inhibition in vivo at 300 mg/kg amounted to 34%.

For `CCN1C(=S)SC(c2ccccc2)N(CC)C1c1ccccc1` (stereo not shown) [compound 15], in data set [1], the change in vivo at 300 mg/kg came out at 31% and the inhibition in vivo at 300 mg/kg was 45%.

Consider `COc1cccc(C2SC(=S)N(C)C(c3cccc(OC)c3)N2C)c1` (stereo not shown) [Compound No. 2], for which, in data set [1], the change in vivo at 300 mg/kg was determined as 25% and the inhibition in vivo at 300 mg/kg came to 41%. In data set [2], this molecule showed a mortality at 168 h of 0%.

Take `COc1ccc(C2SC(=S)N(C)C(c3ccc(OC)cc3)N2C)cc1` (stereo not shown) [Compound No. 1, 3,5-Dimethyl-4,6-di(p-methoxyphenyl)-tetrahydro-2H-1,3,5-thiadiazine-2-thione]: in data set [1], the change in vivo at 300 mg/kg was determined as 53% and the inhibition in vivo at 300 mg/kg amounted to 42%. Besides, the mortality at 168 h in data set [2] was 0%.

Consider `CSc1ccc(C2SC(=S)N(C)C(c3ccc(SC)cc3)N2C)cc1` (stereo not shown) [compound 11], for which, in data set [1], the change in vivo at 300 mg/kg came to 53% and the inhibition in vivo at 300 mg/kg stood at 13%.

Turning to `COc1ccc(C2SC(=S)N(C)C(c3ccc(OC)cc3OC)N2C)c(OC)c1` (stereo not shown) [compound 12], in data set [1], the change in vivo at 300 mg/kg is 46% and the inhibition in vivo at 300 mg/kg was determined as 31%. For the same molecule, in data set [2], the mortality at 168 h was found to be 0%.

Consider `CC(C)c1ccc(C2SC(=S)N(C)C(c3ccc(C(C)C)cc3)N2C)cc1` (stereo not shown) [compound 9], for which, in data set [1], the change in vivo at 300 mg/kg turned out to be 56% and the inhibition in vivo at 300 mg/kg came to 30%.

For `Cc1ccc(C2SC(=S)N(C)C(c3ccc(C)cc3)N2C)cc1` (stereo not shown) [Compound No. 4], in data set [1], the change in vivo at 300 mg/kg was 99% and the inhibition in vivo at 300 mg/kg amounted to 49%. Also, the mortality at 168 h in data set [2] is 0%.

With `CN1C(=S)SC(c2ccc(Oc3ccccc3)cc2)N(C)C1c1ccc(Oc2ccccc2)cc1` (stereo not shown) [compound 10], in data set [1], the change in vivo at 300 mg/kg was -23% and the inhibition in vivo at 300 mg/kg came to 53%. Further, the mortality at 168 h in data set [2] turned out to be 0%.

For `O=C(O)c1cccnc1` [nicotinic acid], the side effects reported result in data set [3] was “flashing or gastroenteric troubles”.

For `CCOC(=O)C(C)(C)Oc1ccc(Cl)cc1` [Clofibrate, reference compound], in data set [1], the change in vivo at 300 mg/kg was -8% and the inhibition in vivo at 300 mg/kg was determined as 45%. For the same molecule, in data set [3], the side effects reported result was “myalgia or hepatic insufficiency,and they are likely to lead to gallstone formation”. The hepatic carcinoma result in data set [4] is “brings about hepatic carcinoma on animal experiments”.
